In ChEMBL document CHEMBL2407077, “Cycloforskamide, a cytotoxic macrocyclic peptide from the sea slug Pleurobranchus forskalii” (J Nat Prod, 2013) one finds IC50 data, which are given here for two compounds.

The IC50 is the concentration needed to halve the response being measured.

The structures appear in SMILES notation. Numbered stars: 1 amine (or outer) side, 2 acyl side, 3 side chain; on linkers, the order of the positions; unused ones are H or OH. Square brackets hold non-standard residues; d marks the D form. Peptide text beside a SMILES is read from it. X2 = CC[C@H](C)[C@@H](N[*:1])C1=N[C@H](C(=O)[*:2])CS1; X1 = O=C([C@@H]1CSC([C@H]2CCCN2[*:1])=N1)[*:2]

The test system of this assay is P388. As to the kind of experiment: Cytotoxicity against mouse P388 cells after 3 days by MTT assay. Particulars: P388, 72 h. The assay is classed as functional, cell-based. For orientation: Formazan colour is commonly taken as a measure of viable cells.

Consider `COc1cccc2c1C(=O)c1c(O)c3c(c(O)c1C2=O)C[C@@](O)(C(=O)CO)C[C@@H]3O[C@H]1C[C@H](N)[C@H](O)[C@H](C)O1` [DOXORUBICIN], for which 0.21 µM corresponded to half-maximal inhibition (IC50).
In the case of `CC[C@H](C)[C@@H]1NC(=O)[C@@H]2CSC(=N2)[C@H]2CCCN2C(=O)[C@H]([C@@H](C)O)NC(=O)[C@H](C(C)C)NC(=O)[C@H](C(C)C)NC(=O)[C@H]([C@@H](C)O)NC(=O)[C@@H]2CSC(=N2)[C@@H]([C@@H](C)CC)NC(=O)[C@H](C(C)C)NC(=O)[C@@H]2CSC(=N2)[C@H]2CCCN2C1=O` [CYCLOFORSKAMIDE] (cyclo(I[X1]V[X2]TVVT[X1])), the IC50 turned out to be 5.8 µM.
